According to patent US12178875B2, “Lymphatic system-directing lipid prodrugs” (Seaport Therapeutics, Inc., priority 2017, dated 2024):
One block for each molecule: values may come before it.

How the values were obtained:
[1] = Lymphatic transport assay in mesenteric lymph-duct cannulated rats; assay type: in vivo, rat; settings: total MPA related compound, intraduodenal infusion, anaesthetised mesenteric lymph-duct cannulated rats; class symbols
Experimental: In order to assess the lymphatic transport of disclosed lipid prodrugs in rats, the mesenteric lymph ducts of the rats used in this study were cannulated to allow continual collection of mesenteric lymph. Lipid formulations containing the compound of interest were then administered to the animals, lymph was collected, and drug concentrations in the lymph samples were quantified.
Lipid-based formulations of the compounds of the invention or control compounds were prepared as previously described (Trevaskis, N. L. et al., Pharmaceutical Research, 2005, 22(11), 1863-1870, WO 2016/023082, and WO 2017/041139, hereby incorporated by reference.
In brief, either 1 or 2 mg of test prodrug, 40 mg oleic acid and 25 mg Tween 80 were mixed in a glass vial and incubated at 37° C. for 12-18 h to equilibrate. An aqueous phase consisting of 5.6 ml phosphate buffered saline (PBS, pH 7.4) was subsequently added to the lipid phase (MPA was dissolved in PBS for the preparation of MPA containing formulations) and the formulation emulsified by ultrasonication with a Misonix XL 2020 ultrasonic processor (Misonix, Farmingdale, NY, USA) equipped with a 3.2-mm microprobe tip running at 30% of the maximal amplitude of […] and a frequency of 20 kHz for 2 min at room temperature. Doses for administering to more than one animal can be prepared in one batch by suitably increasing the quantities given above. Drug/prodrug concentrations in all formulations were verified using HPLC-MS.
Male Sprague-Dawley (SD) rats were selected for the lymphatic transport studies involving mycophenolic acid lipid prodrugs. Depending on the therapeutic agent, male, female, or both may be selected for study. Rats (typically 240-320 g) were maintained on a standard diet and fasted overnight with free access to water prior to experiments.
Anesthetized rats were placed on a heated pad at 37° C. and cannulas inserted into the duodenum (for formulation administration and rehydration), mesenteric lymph duct (for lymph collection), and carotid artery (in cases where blood collection was conducted). Post-surgery, rats were re-hydrated for 0.5 h via intraduodenal infusion of normal saline at 2.8 mL/h. […] The collection tubes were changed hourly and lymph flow was measured gravimetrically. […]
Drug concentration in lymph is expressed as total drug and includes free drug and drug associated with different glycerides. […]
Transport of compounds into lymph during each hourly collection period was calculated from the product of the volume of lymph collected and the measured concentrations in lymph. For fluorescently-labelled compounds such as a BDP-conjugate, the concentrations of total compound may be measured by fluorescence spectroscopy without hydrolysis. […]

[2] = In vitro release of therapeutic agent from prodrugs in plasma supplemented with lipoprotein lipase; assay type: in vitro ADME, rat
Experimental: The percentage of MPA released at 60 minutes in LPL-supplemented rat plasma was also determined for selected compounds. […] The designation “**” indicates a release % of >25% to 50%. The designation “***” indicates a release % of >50% to 75%. The designation “****” indicates a release % of >75%.
In order to probe the release of free drug from TG prodrugs in the systemic circulation, prodrugs were incubated with plasma (rat, mouse, dog, pig or human) supplemented with lipoprotein lipase (LPL, 200 IU/ml). LPL is a key enzyme required for the hydrolysis of lipoprotein associated TG in the systemic circulation and is therefore expected to be a key contributor to lipolysis of the re-esterified drug-TG construct in plasma, largely via liberation of fatty acids in the sn-1 and the sn-3 position of the TG-mimetic, prior to drug release from the 2′ position via esterase hydrolysis. LPL is […] is tethered to the luminal surface of vascular endothelial cells under physiological conditions. In the current in vitro studies, plasma was therefore supplemented with LPL to better reflect the in vivo situation. To start hydrolysis, 10 μl of LPL solution (10,000 IU/ml) was added to a mixture of 10 μl of prodrug solution (1 mg/ml dissolved in acetonitrile) and 500 μl of blank plasma. The mixture was incubated at 37° C. Samples (20 μl) of the incubation solution were taken at 0, 5, 15, 30, 60, 90, 120 and 180 minutes post-incubation and added to 180 μl of MeCN to stop lipolysis. The mixture was vortexed and centrifuged at 4500×g for 5 minutes to precipitate proteins prior to analysis. The supernatant was analyzed by HPLC-MS/MS for the potential products (MG form, acid form, and free drug) of prodrug hydrolysis.
To assess the stability and release profile of compounds of the present invention, compounds TAC-I-18 and TAC-I-20 were incubated with rat plasma and the concentrations of compounds, parent drug tacrolimus, and acid were monitored by LCMS for about three hours.

[3] = mice, oral, multiple dose study: 2 times daily for 2 days, samples on the 3rd day (FIG. 8A/8B)
Experimental: This experiment included a single and multiple dose study. In the multiple dose study, dosing of either free MPA or MPA-2-TG (MPA-I-34, structure below) 2 times daily was performed for 2 days followed by collecting samples from mesenteric or peripheral lymph nodes on the 3rd day after dosing.
The concentrations of free MPA were measured for both groups of mice.

[4] = rat plasma supplemented with LPL, 180 min (FIG. 9, FIG. 10)

Cumulative lymphatic transport % dose (Mean ± SD, or Range if n = 2) [1]: A (greater than 10% (>10%))
SMILES: CCCCCCCCCCCCCCCC(=O)OCC(COC(=O)CCCCCCCCCCCCCCC)OC(=O)COC(=O)CC/C(C)=C/Cc1c(O)c2c(c(C)c1OC)COC2=O [MPA-I-46]

Cumulative lymphatic transport % dose (Mean ± SD, or Range if n = 2) [1]: A (greater than 10% (>10%))
SMILES: CCCCCCCCCCCCCCCC(=O)OCC(COC(=O)CCCCCCCCCCCCCCC)OC(=O)CC(C)COC(=O)CC/C(C)=C/Cc1c(O)c2c(c(C)c1OC)COC2=O (stereo not drawn) [MPA-I-50]

The remaining lines, values behind:

SMILES: CCCCCCCCCCCCCCCC(=O)OCC(COC(=O)CCCCCCCCCCCCCCC)OC(=O)CCCCCC(=O)Oc1c(C/C=C(\C)CCC(=O)OC)c(OC)c(C)c2c1C(=O)OC2 [MPA-I-19]
Cumulative lymphatic transport % dose (Mean ± SD, or Range if n = 2) [1]: A (greater than 10% (>10%))
Percentage MPA release at 60 min in LPL supplemented rat plasma ([2]; 60 min, n = 3 unless specified otherwise): **** (a release % of >75%)

SMILES: CCCCCCCCCCCCCCCC(=O)OCC(COC(=O)CCCCCCCCCCCCCCC)OC(=O)CC(C)CCCCCCCC(C)C(=O)Oc1c(C/C=C(\C)CCC(=O)OC)c(OC)c(C)c2c1C(=O)OC2 (stereo not drawn) [MPA-I-20]
monoglyceride (MG) peak after 180 min [2, 4]: almost completely disappeared

SMILES: CCCCCCCCCCCCCCCC(=O)OCC(COC(=O)CCCCCCCCCCCCCCC)OC(=O)CC(C)CCCCCCCC(C)C(=O)OCCCCC(=O)Oc1c(C/C=C(\C)CCC(=O)OC)c(OC)c(C)c2c1C(=O)OC2 (stereo not drawn) [MPA-I-22, (E)-12-(1,3-Bis(palmitoyloxy)propan-2-yl) 1-(5-((6-methoxy-5-(6-methoxy-3-methyl-6-oxohex-2-en-1-yl)-7-methyl-3-oxo-1,3-dihydroisobenzofuran-4-yl)oxy)-5-oxopentyl) 2,10-dimethyldodecanedioate]
MPA released after 180 min [2, 4]: about 80%
monoglyceride (MG) peak after 180 min [2, 4]: almost completely disappeared

SMILES: CCCCCCCCCCCCCCCC(=O)OCC(COP(=O)([O-])OCC[N+](C)(C)C)OC(=O)CC/C(C)=C/Cc1c(O)c2c(c(C)c1OC)COC2=O (stereo not drawn) [MPA-I-39]
Cumulative lymphatic transport % dose (Mean ± SD, or Range if n = 2) [1]: C (less than 1% and greater than 0.24% (<1% and >0.24%))

SMILES: CCCCCCCCCCCCCCCC(=O)OCC(COC(=O)CCCCCCCCCCCCCCC)OC(=O)CC/C(C)=C/Cc1c(O)c2c(c(C)c1OC)COC2=O [MPA-TG]
concentrations of free MPA in mesenteric lymph nodes compared with MPA [3]: Much higher concentrations
